Measured values taken from paper PMC9414910, “Optimized ^68Ga-Labeled Urea-Based PSMA-Targeted PET Tracers for Prostate Cancer” (Pharmaceuticals, 2022).

Tests used:
[1] = Partition coefficient, octanol–water system; assay type: physicochemical; details: octanol–water (v/v = 1:1), n = 3
Experimental: The partition coefficient of each novel radiotracer was determined using an octanol–water system (v/v = 1:1). The in vitro stability was determined using two systems (PBS and 5% BSA). The Ki value was measured by the NAALADase assay. The 22Rv1 and PC-3 cell lines were used for the cell-binding study and establishment of the tumor-bearing model (detailed information is shown in the Supplementary Materials).
PBS) and reported as log p ± SD. […]

22Rv1 cells (mild PSMA+) = test: Cell uptake / binding in 22Rv1 cells; assay type: cell-based, human; details: 60 min incubation, 37 °C
Source text: Cell lines were kindly provided by the stem cell bank of the Chinese Academy of Sciences. The human prostate cancer epithelial cell lines 22Rv1 (mild PSMA+) and PC-3 (with no PSMA receptor) were used to evaluate the specific cell-binding affinity of the radiotracers, and the results were expressed as percentages of injected activity, IA%/10^6.
Cell Lines and Culture Condition
Cell lines were kindly provided by the stem cell bank, the Chinese Academy of Sciences. The human prostate cancer cell lines 22Rv1 ( mild PSMA positive) and PC3 (PSMA negative) were cultured in RPMI 1640 medium or F12K medium (CORNING, America), supplemented with 10% Fetal Bovine Serum
(GIBCO, The Netherlands) and 1% penicillin-streptomycin (CORNING, America) in a humidified incubator at 37 °C under 5% CO2. Each cell line was passaged when it was at around 80-90% confluence, and harvested using trypsin-ethylenediaminetetraacetic acid (trypsin-EDTA; 0.25% trypsin, 0.02% EDTA, all from KeyGEN BioTECH).
Cells were seeded separately in 24 well plates (1 x 10^5 cells in 1 mL medium/well) and incubated overnight, the medium was changed 2 h before the experiment. For the binding experiments, cells were incubated with novel […]
min, 30 min and 60 min (6 wells/time point). After incubation, the medium was removed and the cells were washed twice with ice-cold phosphate-buffered saline (0.5 mL). Finally, the cells were lysed by NaOH (0.5 M, 0.5 mL). Coincubation of 2-(phosphonomethyl) pentane-1,5-dioic acid […]
(2-PMPA) solution (2 μg/well) and each radiotracer for 60 min was conducted as the blocking experiment. The radioactivity of cells was measured by a γ-counter. The studies were performed in triplicate and the results were reported as the percentage injected activity (IA%/10^6 cells). […]

[2] = Blood pharmacokinetics in male ICR mice; assay type: in vivo; details: 7.4 MBq i.v., two-compartment model
Experimental: Injection of novel radiotracers or [68Ga]Ga-PSMA-617 or [68Ga]Ga-PSMA-11 […]
mice (5 mice/group), and the blood sample (5 μL) of each mouse was collected by cutting down the tail end at different time points post injection. The radioactivity of blood samples were measured by a γ-counter and the pharmacokinetics data was calculated using the WinNonlin software.
Figure S3. Time-activity curves of the blood samplesafter injection of 7.4 MBq of [68Ga]Ga-PSMA-4PY (A), [68Ga]Ga-PSMA-Q (B),[68Ga]Ga-PSMA-P (C), [68Ga]Ga-PSMA-617 (D), [68Ga]Ga-PSMA-11 (E), [68Ga]Ga-PSMA-Q-1 (F), [68Ga]Ga-PSMA-Q-2 (G) and [68Ga]Ga-PSMA-Q-3 (H).
(1 picture or pasted object on this page, not shown here)

22Rv1 tumor-bearing mice = test: Biodistribution in 22Rv1 tumor-bearing mice; details: for Uptake Blood, Mean / Uptake Bone, Mean / Uptake Heart, Mean / Uptake Kidney, Mean / Uptake Liver, Mean / Uptake Lung, Mean / Uptake Muscle, Mean / Uptake Spleen, Mean / Uptake Tumor (22Rv1), Mean: 0.74 MBq, n = 3; for Clearance profile in the kidneys: within 60 min p.i.
Experimental: (§1) The animal studies were approved by the institutional animal care and use committee of the Chinese PLA General Hospital. Healthy male ICR mice were injected with either a novel radiotracer (37 MBq in 150 μL) or saline (150 μL) for the radiotoxicity evaluation. […] Biodistribution and micro-PET studies were performed on 22Rv1 and PC-3 xenograft models, and 2-PMPA was used as the PSMA blocker (all details are shown in the Supplementary Materials).
BALB/c nude mice (male, 4-6 weeks) were inoculated subcutaneously with […]
100 mm3, the mice underwent biodistribution study and Micro-PET imaging.
The 22Rv1 tumor-bearing mice were injected with each novel radiotracer or […]
[…] Mice were sacrificed at different time points p.i. (10 min, 30 min, 60 min), tumors and interested organs were harvested, weighed and measured by a γ-counter, the results were expressed as the percentage of injected dose per gram (ID%/g).
Table S1. Uptake values for ex vivo tissues of [ 68Ga]Ga-PSMA-Q (0.74 MBq/mice) in 22Rv1 tumor-bearing mice (10, 30 and 60 min p.i., n = 3/time point).

22Rv1 tumors = test: Micro-PET imaging in 22Rv1 tumor-bearing mice; assay type: in vivo; details: 22Rv1 tumor, 60 min p.i., 7.4 MBq
Experimental: as §1
Table S9. Tumor-to-mu scle (T/M) ratio and tumor- to-kidney (T/K) rati o of radiotracers at 60 min p.i.
The Mice bearing 22Rv1 and PC-3 (n = 3/group) xenograft tumors were […]
Co-injection with 2-PMPA (50 μ g) and each novel tracer (7.4 MBq in 150 μL) was used for blocking. Then the mice were anesthetized with 3% (v/v) isoflurane and underwent Micro-PET scans with continuous 1% (v/v) isoflurane. The images were acquired at 60 min p.i.. In comparison, […]
into another group of mice (n = 3), and Micro-PET schedule was performed as […]
Imaging was performed on a Super Nova PET/CT scanner using a 100-mm-transaxial field of view for PET and 110-mm for CT.
Three-dimensional ordered-subsets expectation maximization reconstruction

SMILES | Log p pH = 7.4 [1] | Uptake in 22Rv1 cells (22Rv1 cells (mild PSMA+)) [IA%/10^6] | Elimination half-life [2] [min] | Uptake Blood, Mean (22Rv1 tumor-bearing mice; 10 min p.i.) [ID%/g] | Uptake Bone, Mean (22Rv1 tumor-bearing mice; 10 min p.i.) [ID%/g] | Uptake Heart, Mean (22Rv1 tumor-bearing mice; 10 min p.i.) [ID%/g] | Uptake Kidney, Mean (22Rv1 tumor-bearing mice; 10 min p.i.) [ID%/g] | Uptake Liver, Mean (22Rv1 tumor-bearing mice; 10 min p.i.) [ID%/g] | Uptake Lung, Mean (22Rv1 tumor-bearing mice; 10 min p.i.) [ID%/g] | Uptake Muscle, Mean (22Rv1 tumor-bearing mice; 10 min p.i.) [ID%/g] | Uptake Spleen, Mean (22Rv1 tumor-bearing mice; 10 min p.i.) [ID%/g] | Uptake Tumor (22Rv1), Mean (22Rv1 tumor-bearing mice; 10 min p.i.) [ID%/g] | Uptake Blood, Mean (22Rv1 tumor-bearing mice; 30 min p.i.) [ID%/g] | Uptake Bone, Mean (22Rv1 tumor-bearing mice; 30 min p.i.) [ID%/g] | Uptake Kidney, Mean (22Rv1 tumor-bearing mice; 30 min p.i.) [ID%/g] | Uptake Liver, Mean (22Rv1 tumor-bearing mice; 30 min p.i.) [ID%/g] | Uptake Lung, Mean (22Rv1 tumor-bearing mice; 30 min p.i.) [ID%/g] | Uptake Muscle, Mean (22Rv1 tumor-bearing mice; 30 min p.i.) [ID%/g] | Uptake Spleen, Mean (22Rv1 tumor-bearing mice; 30 min p.i.) [ID%/g] | Uptake Tumor (22Rv1), Mean (22Rv1 tumor-bearing mice; 30 min p.i.) [ID%/g] | also measured
O=C([O-])CN1CCN(CC(=O)[O-])CCN(CC(=O)NCCCCC(=O)NC(Cc2cnc3ccccc3c2)C(=O)NCCCCC(NC(=O)NC(CCC(=O)O)C(=O)O)C(=O)O)CCN(CC(=O)O)CC1.[68Ga+3] (stereo not shown) [[^68Ga]Ga-PSMA-Q-1] | −3.09 ± 0.19 | 3.38 ± 0.50 | 21.17 ± 2.01 | 2.88 | 0.72 | 2.21 | 27.12 | 2.38 | 1.19 | 0.81 | 2.26 | 1.67 | 1.31 | 0.21 | 18.86 | 1.23 | 0.68 | 0.18 | 1.79 | 2.07 | Uptake Blood, Mean (22Rv1 tumor-bearing mice; 60 min p.i.): 0.37 ID%/g; Uptake Bone, Mean (22Rv1 tumor-bearing mice; 60 min p.i.): 0.15 ID%/g; Uptake Heart, Mean (22Rv1 tumor-bearing mice; 60 min p.i.): 0.54 ID%/g; Uptake Kidney, Mean (22Rv1 tumor-bearing mice; 60 min p.i.): 5.70 ID%/g; Uptake Liver, Mean (22Rv1 tumor-bearing mice; 60 min p.i.): 0.45 ID%/g; Uptake Lung, Mean (22Rv1 tumor-bearing mice; 60 min p.i.): 0.26 ID%/g; Uptake Muscle, Mean (22Rv1 tumor-bearing mice; 60 min p.i.): 0.09 ID%/g; Uptake Spleen, Mean (22Rv1 tumor-bearing mice; 60 min p.i.): 0.45 ID%/g; Uptake Tumor (22Rv1), Mean (22Rv1 tumor-bearing mice; 60 min p.i.): 2.38 ± 0.31 ID%/g; Uptake Tumor (22Rv1), Mean (22Rv1 tumor-bearing mice; 60 min p.i., listed as [68Ga]Ga-PSMA-Q-1): 2.38 ID%/g; Clearance profile in the kidneys (22Rv1 tumor-bearing mice): washed out rapidly from the kidneys; SUVmax of tumor (22Rv1 tumors): 0.86 ± 0.09
O=C([O-])CN1CCN(CC(=O)[O-])CCN(CC(=O)NCc2ccc(C(=O)NC(Cc3cnc4ccccc4c3)C(=O)NCCCCC(NC(=O)NC(CCC(=O)O)C(=O)O)C(=O)O)cc2)CCN(CC(=O)O)CC1.[68Ga+3] (stereo not shown) [[^68Ga]Ga-PSMA-Q-3] | −2.99 ± 0.33 | 3.31 ± 0.49 | 25.72 ± 1.87 | 1.68 | 0.67 | 1.87 | 21.45 | 1.53 | 0.83 | 0.72 | 1.12 | 1.88 | 0.72 | 0.33 | 13.88 | 1.18 | 0.53 | 0.40 | 0.94 | 2.77 | Uptake Heart, Mean (22Rv1 tumor-bearing mice; 30 min p.i.): 1.29 ID%/g; Uptake Blood, Mean (22Rv1 tumor-bearing mice; 60 min p.i.): 0.34 ID%/g; Uptake Bone, Mean (22Rv1 tumor-bearing mice; 60 min p.i.): 0.23 ID%/g; Uptake Heart, Mean (22Rv1 tumor-bearing mice; 60 min p.i.): 1.11 ID%/g; Uptake Kidney, Mean (22Rv1 tumor-bearing mice; 60 min p.i.): 2.65 ID%/g; Uptake Lung, Mean (22Rv1 tumor-bearing mice; 60 min p.i.): 0.43 ID%/g; Uptake Muscle, Mean (22Rv1 tumor-bearing mice; 60 min p.i.): 0.19 ID%/g; Uptake Spleen, Mean (22Rv1 tumor-bearing mice; 60 min p.i.): 0.59 ID%/g; Uptake Tumor (22Rv1), Mean (22Rv1 tumor-bearing mice; 60 min p.i.): 3.31 ± 0.29 ID%/g; Uptake Tumor (22Rv1), Mean (22Rv1 tumor-bearing mice; 60 min p.i., listed as [68Ga]Ga-PSMA-Q-3): 3.31 ID%/g; Clearance profile in the kidneys (22Rv1 tumor-bearing mice): washed out rapidly from the kidneys; SUVmax of tumor (22Rv1 tumors): 0.88 ± 0.18
